Experimental findings from patent US7619076B2, “Synthetic compounds useful as nodulation agents of leguminous plants and preparation processes thereof” (Bayer Cropscience S.A., priority 2003, dated 2009) are described below.

One test has as its system alfalfa. In words: Nodulation tests on alfalfa (induction of the formation of root nodules). Format: in vivo. Particulars: alfalfa plantlets; for nodulation activity relative to the benzamide derivative 3: FIG. 2-4. How it is done:
The sulfated products are tested on alfalfa for induction of the formation of root nodules, and on the model legume Medicago truncatula for induction of the expression of a symbiotic gene coding for an early nodulin. Alfalfa plantlets are grown under axenic conditions in test tubes on a nitrogen-poor agar medium (Demont-Caulet et al., Plant Physiol., 120, 83-92, 1999). Untreated plantlets serve as control. Natural Nod or synthetic LCO factors are added at the concentrations indicated.

Test [1] relates to MtENOD11::GUS in plant bearing a mutation in the DMI1 gene. In words: Induction of early nodulin ENOD11 transcription, MtENOD11::GUS reporter, plants bearing a mutation in the DMI1 gene. Format: in vivo, Medicago truncatula. Particulars: DMI1 mutant plants, 6 hours LCO treatment, X-Gluc. How it is done: (§1) These tests are performed to determine whether the synthetic LCOs induce symbiotic responses by activation on the same signal transduction pathway as the natural Nod factors. The tests are performed on the model legume Medicago truncatula. […] The compound that serves as reference is the sulfated tetramer 12 acylated with C16:2Δ2E,9Z chain, which is an analog of the natural Nod factor. The control is the plant cultivated in the absence of LCO.
(§2) A new gene of Medicago truncatula, MtENOD11, coding for an RPRP (Repetitive proline-rich protein), and transcribed during the first steps of infection of nodulation on the nodule roots and tissues was identified (Journet et al. Mol. Plant-Microbe Interact., 14, 737-748, 2001). Using the transgenic Medicago truncatula plant expressing the fusion MtENOD11::GUSA, it is possible to determine whether a Nod factor analog added to the culture medium of the plant has induced transcription of the ENOD11 gene.
(§3) For the ENOD11 transcription tests, a Fahraeus medium is used as for the modulation tests, but without agar. The seedlings are placed on paper in pockets containing the culture medium. […] The number of roots giving a characteristic blue response is then counted.

Another test has as its system MtENOD11::GUSA. In words: Induction of early nodulin ENOD11 transcription, MtENOD11::GUSA reporter, wild-type Jemalong plants. The format is in vivo, Medicago truncatula. Particulars: 6 hours LCO treatment, X-Gluc blue roots counted, FIG. 5. How it is done: as §1, §2, §3
For the next test, the system named is Lotus corniculatus. Nature of the test: Root hair deformation assay on Lotus corniculatus. Format: in vivo. Further details: key to Root hair deformation (Had) response: The responses were classified “+” when the proportion of Had+ was significantly higher (at the probability level P=0.05) among the treated plants compared with the untreated control. Particulars: for Root hair deformation (Had) response: 15 plants, 16 hr incubation. How it is done:
Seeds of Lotus corniculatus (cv Rodeo) were sterilized. Germinated seeds with rootlets about 1 cm long were aseptically transferred onto Farhaeus soft agar plates. Plates were sealed with Parafilm and placed vertically for two days in a plant growth chamber (at 25° C., with a 16-hr light period, a relative humidity of 75%, OsramVFluora L 77 as the type of light, and light intensity at the level of the top of the plates of 30 μE.m-2.s-1) to allow plant growth and root hair development. Then 2 ml of a Nod factor derivative sterile solution was poured to cover the Lotus root system, and after 30 mm, excess liquid was removed. A further incubation was performed for 16 hr in the plant growth chamber. The roots of the five plants were transferred between slide and cover slip and observed by bright field microscopy after staining by methylene blue.
Hair deformation (Had) activity was estimated by a limit dilution method. Nod factor derivatives were applied at concentrations ranging from 10^-7 M to 10-11 M. The activity of two DP5 chitin derivatives were compared, the soybean Nod factor and its benzoylated analog 10. Both compounds were O-fucosylated at the reducing end, but differed by the N-substitution on the terminal non-reducing glucosamine residue, either C18:1 N-acylated like the soybean Nod factor or N-benzoylated. Each compound was dissolved in water/ethanol 50/50; 0,01% Chaps was added at a concentration of 1 mM. These stock solutions were then diluted in water. […] The statistical significance (at the P=0.05) of the proportion of <<+>> responses was calculated using the ratio comparisons based on the Fisher's <<Exact>> test (SAS software). Experiments were carried out twice.
Fifteen plants were used for each treatment and each dilution. Sixty six untreated control plants were used to estimate the intrinsic plant variability for the Hair deformation character. […] Data were analysed using the Fisher's “Exact” test.

Structures are written as SMILES. “Also recorded” adds a separate entry of the source.

For the compound `CCCCCC/C=C\CCCOc1cccc(CN[C@H]2[C@H](O[C@H]3[C@H](O)[C@@H](NC(C)=O)[C@H](O[C@H]4[C@H](O)[C@@H](NC(C)=O)[C@H](O[C@H]5[C@H](O)[C@@H](NC(C)=O)C(O)O[C@@H]5COS(=O)(=O)[O-])O[C@@H]4CO)O[C@@H]3CO)O[C@H](CO)[C@@H](O)[C@@H]2O)c1.[Na+]` (stereo partly drawn) [compound 4, 2-acetamido 4-O-{2-acetamido-4-O-[2-acetamido-2-deoxy-4-O-(2-deoxy-2-(N-3-(undec-4Z-enyloxy)benzyl)amino-β-D-glucopyranosyl)-β-D-glucopyranosyl]-2-deoxy-β-D-glucopyranosyl}-2-deoxy-6-O-sulfo-D-glucopyranose, sodium salt], in the test on alfalfa, the “nodulation activity relative to the benzamide derivative 3” value is reported as “moderate activity”.
Take `CCCCCC/C=C\CCCOc1cccc(C(=O)N[C@H]2[C@H](O[C@H]3[C@H](O)[C@@H](NC(C)=O)[C@H](O[C@H]4[C@H](O)[C@@H](NC(C)=O)[C@H](O[C@H]5[C@H](O)[C@@H](NC(C)=O)C(O)O[C@@H]5COS(=O)(=O)[O-])O[C@@H]4CO)O[C@@H]3CO)O[C@H](CO)[C@@H](O)[C@@H]2O)c1.[Na+]` (stereo partly drawn) [compound 3, 2-acetamido-4-O-{2-acetamido-4-O-[2-acetamido-2-deoxy-4-O-(2-deoxy-2-(N-3-(undec-4Z-enyloxy)benzoyl)amino-β-D-glucopyranosyl)-β-D-glucopyranosyl]-2-deoxy-β-D-glucopyranosyl}-2-deoxy-6-O-sulfo-D-glucopyranose, sodium salt]: the “ENOD11::GUS response in plants bearing the DMI1 mutation” value in test [1] was “does not induce any response”. For the same compound, the “nodulation activity on alfalfa” value in the test on alfalfa (axenic, nitrogen-poor agar medium, result in words, sodium salt) is “advantageous activity; also recorded: most active synthetic compound”. Besides, the “nodulation activity relative to the sulfated tetramer 11 acylated with the reference C16:1Δ9Z chain” value in the test on alfalfa (FIG. 1) is recorded as “similar”. The “ENOD11 transcription, times less active than the reference compound, the acylated tetramer 12” value with MtENOD11::GUSA is “approximately 10 times”.
As for `CCCCCC/C=C\CCCOc1cccc(C(=O)NC2C(O)[C@H](O)C(CO)O[C@H]2O[C@@H]2C(CO)O[C@@H](O[C@@H]3C(CO)O[C@@H](O[C@@H]4C(CO)O[C@@H](O[C@@H]5C(CO[C@@H]6OC(C)[C@@H](O)C(O)C6O)OC(O)C(NC(C)=O)C5O)C(NC(C)=O)C4O)C(NC(C)=O)C3O)C(NC(C)=O)C2O)c1` (stereo partly drawn) [compound 10, 2-acetamido-4-O-[2-acetamido-4-O-{2-acetamido-4-O-[2-acetamido-2-deoxy-4-O-(2-deoxy-2-(N-3-(undec-4Z-enyloxy)benzoyl)amino-β-D-glucopyranosyl)-β-D-glucopyranosy]-2-deoxy-β-D-glucopyranosyl}-2-deoxy-β-D-glucopyranosyl]-2-deoxy-6-O-(-α-L-fucopyranosyl)-D-glucopyranose], the “Root hair deformation (Had) response” value in the test with Lotus corniculatus (10^−7 M), in the test with Lotus corniculatus (10^−8 M) and in the test with Lotus corniculatus (10^−9 M) was “+” throughout. For the same compound, in the test with Lotus corniculatus (limit dilution method), the “concentration at which activity is significant in the root hair bioassay” value is reported as “nanomolar”. For the same compound, in the test on Lotus corniculatus (result in words), the “activity on the Lotus corniculatus root hair bioassay” value was “high activity”.
Take `CCCCCCC#CCCCOc1cccc(C(=O)N[C@H]2[C@H](O[C@H]3[C@H](O)[C@@H](NC(C)=O)[C@H](O[C@H]4[C@H](O)[C@@H](NC(C)=O)[C@H](O[C@H]5[C@H](O)[C@@H](NC(C)=O)C(O)O[C@@H]5COS(=O)(=O)[O-])O[C@@H]4CO)O[C@@H]3CO)O[C@H](CO)[C@@H](O)[C@@H]2O)c1.[Na+]` (stereo partly drawn) [compound 7, 2-acetamido-4-O-{2-acetamido-4-O-[2-acetamido-2-deoxy-4-O-(2-deoxy-2-(N-3-(undec-4Z-ynyloxy)benzoyl)amino-β-D-glucopyranosyl)-β-D-glucopyranosyl]-2-deoxy-β-D-glucopyranosyl}-2-deoxy-6-O-sulfo-D-glucopyranose, sodium salt]: in the test with alfalfa, the “nodulation activity relative to the benzamide derivative 3” value is listed as “comparable”.
On the same count and under the same terms, under `CCCCCC/C=C\CCCOc1cccc(CN(C(C)=O)[C@H]2[C@H](O[C@H]3[C@H](O)[C@@H](NC(C)=O)[C@H](O[C@H]4[C@H](O)[C@@H](NC(C)=O)[C@H](O[C@H]5[C@H](O)[C@@H](NC(C)=O)C(O)O[C@@H]5COS(=O)(=O)[O-])O[C@@H]4CO)O[C@@H]3CO)O[C@H](CO)[C@@H](O)[C@@H]2O)c1.[Na+]` (stereo partly drawn) [compound 5, 2-acetamido-4-O-{2-acetamido-4-O-[2-acetamido-2-deoxy-4-O-(2-deoxy-2-(N-3-(undec-4Z-enyloxy)benzyl)acetamido-β-D-glucopyranosyl)-β-D-glucopyranosyl]-2-deoxy-β-D-glucopyranosyl}-2-deoxy-6-O-sulfo-D-glucopyranose, sodium salt] stands “lower”.
